From US6974804B2, “Esters” (Unilever Home & Personal Care USA, division of Conopco, Inc., priority 2000, dated 2005)

Legend:
Format in all cases: physicochemical
[1] = Gelling of water-immiscible cosmetic liquids in 96 well glass micro-titre plate; parameters: key: gel; g4: gel after overnight (18 hrs) storage at 4° C.; g22: gel after overnight (18 hrs) storage at 22° C.; sg: soft gel; sg22: soft gel after overnight (18 hrs) storage at 22° C.; solution; *: the test at 4° C. was not carried out; settings: for gelling of ISA: 150° C. 2.5 hours, cooled to ambient
Summary of the method: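 Gel formation was scored by eye and by poking with a micro-spatula at three points: on cooling to room temperature, after 18 h at 18 °C, and after another 18 h at 4 °C. Before this, mixtures of cosmetic liquid with roughly 5% or 10% cellobiose ester were heated at 150 °C for 2.5 h.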

[2] = Light transmission at 580 nm (% T); settings: 9% REF2 and 1% of the specified ester in 60:40 hydrogenated polydecene:DC245; 580 nm
[3] = Visual assessment score (clarity of gel in 1 cm cuvette); settings: for Clarity Visual (assessment score): 9% REF2 and 1% of the specified ester in 60:40 hydrogenated polydecene:DC245, scale −12 to 8; for Clarity Visual (appearance): 60:40 hydrogenated polydecene:DC245 gelled with 9% REF2 and 1% of the specified cellobiose ester
Summary of the method: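 A gel in a 1 cm cuvette was laid on white paper printed with 21 graded sets of black figures, numbered −12 (largest, thickest) to 8 (smallest, thinnest). The score was the highest-numbered set read clearly through the gel, with higher meaning clearer.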

[4] = Stability testing of gels: crystal growth visible by eye on storage at 37° C.; settings: for Observations: 9% of REF1 and 1% of additional structurant
[5] = DSC of gels: fibre dissolution temperature (FDT) and solubility of structurant; settings: for Solubility of structurant at 25° C.: from DSC of gel, relative to benchmark REF 2; for FDT: gel heated at 5 K/min in DSC, peak temperature of the highest peak
Protocol: In this Example the Fibre dissolution temperature (FDT) is measured in the DSC process described later herein, by observing when the fibres dissolve whilst the temperature of sample rises. FDT is taken to be the peak temperature of the highest peak.
In REF2 and REF3, the acyl substituents at the other seven cellobiose sites are nonanoyl.
Samples of gel (about 20 mg) were sealed in stainless steel capsules for DSC. An empty stainless steel capsule was used as the physical reference. The samples were subjected to the following temperature programme:
The sample was heated to 100° C. and held at 100° C. for 1 minute, in order to obtain an isotropic solution. The sample was then cooled at 5 K/min to −20° C. The sample was held at −20° C. for 1 minute. The sample is now a gel on the bottom of the sample capsule prepared in a reproducible manner. The gel was then heated at 5 K/min to 100° C. Data was also obtained with empty stainless steel pans as both physical sample and reference. This blank data was later subtracted from the sample data to remove any curvature in the base line.

[6] = 5% cellobiose ester in Fluid AP
[7] = 5% cellobiose ester in Mineral oil
[8] = 5% cellobiose ester in Polydecene
[9] = 10% cellobiose ester in Fluid AP
[10] = 10% cellobiose ester in Mineral oil
[11] = 10% cellobiose ester in Polydecene

| Compound | gelling of DC556 ([1]; 5% cellobiose ester in DC556) | gelling of Fluid AP [1, 6] | gelling of ISA ([1]; 5% cellobiose ester in ISA) | gelling of Mineral oil [1, 7] | gelling of Polydecene [1, 8] | gelling of DC556 ([1]; 10% cellobiose ester in DC556) | gelling of Fluid AP [1, 9] | gelling of ISA ([1]; 10% cellobiose ester in ISA) | gelling of Mineral oil [1, 10] | gelling of Polydecene [1, 11] | Clarity % T [2] [%] | Clarity Visual (assessment score) [3] | Clarity Visual (appearance) [3] | Solubility of structurant at 25° C. [5] | FDT [5] [°C] | other results |
| --- | --- | --- | --- | --- | --- | --- | --- | --- | --- | --- | --- | --- | --- | --- | --- | --- |
| CCCCCCCCC(=O)OCC1OC(OC2C(COC(=O)CCCCCCCC)OC(OC(=O)c3ccc4ccccc4c3)C(OC(=O)CCCCCCCC)C2OC(=O)CCCCCCCC)C(OC(=O)CCCCCCCC)C(OC(=O)CCCCCCCC)C1OC(=O)CCCCCCCC (mixture of isomers) [Ex 1.3] | gel | gel | gel | g22 | gel | gel | gel | gel | g22 | gel | 58 | 4 | transparent | Less soluble. No | 63 | gelling of Finsolv TN ([1]; 5% cellobiose ester in Finsolv TN): sol; gelling of IPM ([1]; 5% cellobiose ester in IPM): g4; gelling of Finsolv TN ([1]; 10% cellobiose ester in Finsolv TN): g4; gelling of IPM ([1]; 10% cellobiose ester in IPM): g22; Observations ([4]; after 12 days at 37° C.): No crystals after 12 days at 37 °C; Observation ([4]; REF2 to which the CHME structurant was added, after 12 days at 37° C.): No crystals after 12 days at 37 °C |
| CCCCCCCCC(=O)OCC1OC(OC2C(COC(=O)CCCCCCCC)OC(OC(C)=O)C(OC(=O)CCCCCCCC)C2OC(=O)CCCCCCCC)C(OC(=O)CCCCCCCC)C(OC(=O)CCCCCCCC)C1OC(=O)CCCCCCCC (mixture of isomers) [Ex 1.7] | gel | gel | sg | sg | gel | gel | gel | gel | gel | gel | 52 | > 8 | transparent | Less soluble. No | 72 | Observations ([4]; after 13 days at 37° C.): Slight crystal growth on surface after 13; Observation ([4]; 10% structurant in 60:40 Panalene L14E:DC245, after 17 days at 37° C.): No crystals after 17 days.; Observation ([4]; REF2 to which the CHME structurant was added, after 13 days at 37° C.): Slight very fine crystal growth after 13 |
